Test results reported in PubChem BioAssay (NCI).
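Cells were grown in 96-well plates and exposed to each compound for 48 hours at five concentrations; endpoints were interpolated linearly between bracketing concentrations, or set to the highest concentration if not reached. GI50 marks 50% less growth. At the TGI there is no net growth.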

Columns and labels:
Test in all cases: NCI tumour cell line growth inhibition, 48 h
[1] = system: UO-31 renal
[2] = system: SK-MEL-5 melanoma
[3] = system: NCI-H226 lung
[4] = system: SNB-75 CNS
[5] = system: HCT-15 colon
[6] = system: M14 melanoma
[7] = system: SK-OV-3 ovarian
[8] = system: HCC-2998 colon
[9] = system: SW-620 colon
[10] = system: A549 NSCLC
[11] = system: MDA-MB-231 breast
[12] = system: UACC-257 melanoma
[13] = system: SK-MEL-2 melanoma
[14] = system: HOP-92 NSCLC
[15] = system: EKVX NSCLC
[16] = system: PC-3 prostate
[17] = system: MALME-3M melanoma
[18] = system: NCI-H460 lung
[19] = system: T-47D breast
[20] = system: SF-268 CNS
[21] = system: RPMI-8226 leukemia
[22] = system: HCT-116 colon
[23] = system: MDA-MB-435
[24] = system: HS 578T breast
[25] = system: BT-549 breast
[26] = system: ACHN renal
[27] = system: OVCAR-5 ovarian
[28] = system: HT29 colon
[29] = system: HOP-62 NSCLC
[30] = system: NCI-H522 lung
[31] = system: A498 renal
[32] = system: LOX IMVI melanoma
[33] = system: NCI/ADR-RES ovarian
[34] = system: 786-0 renal
[35] = system: TK-10 renal
[36] = system: CCRF-CEM leukemia
[37] = system: OVCAR-4 ovarian
[38] = system: SF-539 CNS
[39] = system: SF-295 CNS
[40] = system: K-562 leukemia
[41] = system: IGROV1 ovarian
[42] = system: UACC-62 melanoma
[43] = system: DU-145 prostate
[44] = system: HL-60(TB) leukemia
[45] = system: KM12 colon
[46] = system: RXF 393 renal
[47] = system: MOLT-4 leukemia
[48] = system: SK-MEL-28 melanoma
[49] = system: NCI-H23 lung
[50] = system: SNB-19 CNS
[51] = system: U251 CNS
[52] = system: MCF7 breast
[53] = system: OVCAR-8 ovarian
[54] = system: CAKI-1 renal
[55] = system: COLO 205 colon
[56] = system: OVCAR-3 ovarian
[57] = system: SN12C renal

In the case of `COc1ccc(Nc2ncc(-c3ccccc3)o2)cc1OC`, the GI50 [1] was 9.29 µM, the TGI [1] was > 25 µM and the GI50 [2] was > 25 µM. The TGI [2] was > 25 µM, the GI50 [3] was > 20.6 µM and the TGI [3] was > 25 µM. For the same compound, the GI50 [4] was 5.09 µM, the TGI [4] was > 25 µM and the GI50 [5] was 10.6 µM. The TGI [5] was > 25 µM, the GI50 [6] was > 22.9 µM and the TGI [6] was > 25 µM. The GI50 [7] was 12.7 µM, the TGI [7] was > 25 µM and the GI50 [8] was > 25 µM. The TGI [8] was > 25 µM, the GI50 [9] was 14.9 µM and the TGI [9] was > 25 µM. For the same compound, the GI50 [10] was 15.2 µM, the TGI [10] was > 25 µM and the GI50 [11] was > 25 µM. For the same compound, the TGI [11] was > 25 µM, the GI50 [12] was > 25 µM and the TGI [12] was > 25 µM. The GI50 [13] was 18.4 µM, the TGI [13] was > 25 µM and the GI50 [14] was 6.04 µM. The TGI [14] was > 25 µM, the GI50 [15] was > 25 µM and the TGI [15] was > 25 µM. For the same compound, the GI50 [16] was 17.6 µM, the TGI [16] was > 25 µM and the GI50 [17] was > 25 µM. For the same compound, the TGI [17] was > 25 µM, the GI50 [18] was 13.4 µM and the TGI [18] was > 25 µM. For the same compound, the GI50 [19] was 24.7 µM, the TGI [19] was > 25 µM and the GI50 [20] was > 17.2 µM. The TGI [20] was > 25 µM, the GI50 [21] was > 24 µM and the TGI [21] was > 25 µM. The GI50 [22] was 9.37 µM, the TGI [22] was > 25 µM and the GI50 [23] was > 19.5 µM. The TGI [23] was > 25 µM, the GI50 [24] was 8.43 µM and the TGI [24] was > 25 µM. The GI50 [25] was 18.6 µM, the TGI [25] was > 25 µM and the GI50 [26] was 8.59 µM. The TGI [26] was > 25 µM, the GI50 [27] was > 25 µM and the TGI [27] was > 25 µM. For the same compound, the GI50 [28] was 16.3 µM, the TGI [28] was > 25 µM and the GI50 [29] was > 25 µM. The TGI [29] was > 25 µM, the GI50 [30] was 9.33 µM and the TGI [30] was > 25 µM. The GI50 [31] was 7.77 µM, the TGI [31] was > 25 µM and the GI50 [32] was 11.6 µM. For the same compound, the TGI [32] was > 25 µM, the GI50 [33] was > 22 µM and the TGI [33] was > 25 µM. For the same compound, the GI50 [34] was 11.6 µM, the TGI [34] was > 25 µM and the GI50 [35] was 6.07 µM. The TGI [35] was > 25 µM, the GI50 [36] was 13.9 µM and the TGI [36] was > 25 µM. The GI50 [37] was > 22.2 µM, the TGI [37] was > 25 µM and the GI50 [38] was 5.34 µM. For the same compound, the TGI [38] was > 25 µM, the GI50 [39] was > 24.2 µM and the TGI [39] was > 25 µM. For the same compound, the GI50 [40] was 8.3 µM, the TGI [40] was > 25 µM and the GI50 [41] was > 17.1 µM. The TGI [41] was > 25 µM, the GI50 [42] was > 22.3 µM and the TGI [42] was > 25 µM. The GI50 [43] was 10.7 µM, the TGI [43] was > 25 µM and the GI50 [44] was 10.9 µM. The TGI [44] was > 19 µM, the GI50 [45] was 4.35 µM and the TGI [45] was > 25 µM. The GI50 [46] was 6.03 µM, the TGI [46] was > 19.5 µM and the GI50 [47] was 13.6 µM. The TGI [47] was > 25 µM, the GI50 [48] was > 25 µM and the TGI [48] was > 25 µM. For the same compound, the GI50 [49] was > 25 µM, the TGI [49] was > 25 µM and the GI50 [50] was > 25 µM. For the same compound, the TGI [50] was > 25 µM, the GI50 [51] was 11.2 µM and the TGI [51] was > 25 µM. For the same compound, the GI50 [52] was > 25 µM, the TGI [52] was > 25 µM and the GI50 [53] was 16.2 µM. The TGI [53] was > 25 µM, the GI50 [54] was 7.02 µM and the TGI [54] was > 25 µM. For the same compound, the GI50 [55] was 18.4 µM, the TGI [55] was > 25 µM and the GI50 [56] was > 15.6 µM. For the same compound, the TGI [56] was > 25 µM, the GI50 [57] was > 21.6 µM and the TGI [57] was > 25 µM.
